Results on one molecule are retold here after patent US8580789B2, “Treating glaucoma” (The Cleveland Clinic Foundation, priority 2007, dated 2013).

Holding throughout (set-up): species or system porcine
Test [1] deals with peripapillary sclera. Kind of test: Surface wave velocity (stiffness) of the peripapillary sclera of whole globes, Sonic Eye elastometer. The following applies: for Mean PPS Stiffness, After Glutaraldehyde Crosslinking: Example 2, GTA annular sponge on PS only ~30 min; for Stiffness of Peripapillary Sclera, Post-crosslinking Mean ± SD: 4% GTA on PS only 30 min. The procedure:
(§1) Surface wave velocity (SWV) is a measure of tissue stiffness, and is performed by detecting the velocity of an ultrasonic wave between 2 points (Sonic Eye, Priavision, Menlo Park, Calif.) (Dupps W J, et al., J Refract Surg; 23: 66-75 (2007)). 19 porcine eyes were divided into 2 groups. In group 1 (6 eyes), the SWV across the exposed optic nerve/lamina cribrosa complex (ON/LCC) was initially measured at the eyes' physiologic IOP and at 100 mmHg. The porcine globes were cannulated with IV tubing to facilitate the change in IOP. In group 2 (13 eyes), the pre-treatment SWV was measured across the same region and atop the peri-papillary sclera, after which both regions were treated with riboflavin 1%, Q 5 min×6, and UVA irradiation (˜365 nm at 3 mW/cm^2) for 30 min per eye. The SWV was then re-measured in each eye at the pre-treatment IOP and at 100 mmHg.
(§2) An annular sponge soaked in GTA was exposed to the peripapillary sclera for ˜30 minutes, and not the ON/LCC. Measurements were repeated as above, but also along each quadrant of peripapillary sclera to ensure uniformity and symmetry of crosslinking around the ON/LCC. The results are summarized as follows:
(§3) Eighteen porcine globes were divided evenly into 3 groups. The optic nerves were transected to expose the ON/LC, and each globe was infused through an in-line pressure transducer for direct IOP control. Surface wave velocity, a non-destructive measure of tissue stiffness, was measured across the ON/LC and PS before and after collagen crosslinking at IOP of 10 and 30 mmHg (groups 1 and 2) and at each globe's preinflation IOP and 80 mmHg (group 3). In group 3, papillary strain was measured by analyzing the displacement of fiducial marks immediately adjacent to the ON/LC using digital photography.
(§4) Surface wave velocity (SWV) is a measure of tissue stiffness that has been used in dermatologic applications to measure age-related changes (Potts R O, et al., J Invest Dermatol.; 82(1):97-100 (1984); Potts R O, et al., J Biomech.; 16(6):365-372 (1983); Davis B R, et al., Exp Gerontol; 24(3):201-210 (1989)), softening effects of tissue hydration and skin creams (Vexler A, et al., J Invest Dermatol; 113(5):732-739 (1999)), and sclerosing effects of radiation on breast skin (Gorodetsky R, et al., Int J Radiat Oncol Biol Phys.; 45(4):893-900 (1999)). When acoustic waves in the 0.5 to 30 kHz frequency range are used, propagation speed in skin is related to the density and stiffness of the tissue (Pereira J M, et al., J Biomech.; 23(8):745-751 (1990)). A prototype handheld ocular surface elastometer (Sonic Eye, Priavision, Menlo Park, Calif.) with an operating frequency within this range (4 kHz) and a fixed 4.5 mm wave propagation distance has been described in detail elsewhere (Dupps W J Jr, et al., J Refract Surg.; 23(1):66-75 (2007)). The Sonic Eye was used in this study as a non-destructive means of measuring local in situ tissue stiffness across and around the optic nerve head.
Eighteen porcine eyes were obtained from a local abattoir (Heffelfingers Meats, Inc., Jeromesville, Ohio) and were used within 24 hours postmortem. The optic nerves were dissected under microscopic visualization to expose the ON/LC (FIG. 1). […] Replicate SWV measurements were obtained at a rate of 1 per second with a triggering foot pedal to produce at least 5 measurements that were subsequently averaged for each region of interest. A PC software interface converted the time-of-flight data to velocity in meters per second (m/s), and the velocity data were exported to Excel (v. 11, SP2; Microsoft Corp, Redmond, Wash.) and Minitab (v. 14.20; Minitab Inc, State College, Pa.) for statistical analysis.
(§5) Three experimental groups of 6 eyes each were defined. In group 1, SWV across the optic nerve/lamina cribrosa complex and peripapillary scleral regions of interest were measured at 10 and 30 mmHg to represent a physiological range of pressures. […]

The subject of test [2] is peripapillary sclera. Kind of test: Photographic circumferential strain analysis during IOP elevation, peripapillary sclera. The following applies: Group 3; GTA on PS only; IOP 2-4 to 80 mmHg. The procedure:
as §3
In group 3 (n=6), the same procedure described for group 2 was implemented with the following exceptions. First, four fiducial ink marks were placed in each quadrant of the PS immediately adjacent to the ON/LC prior to measurement. High-resolution (7.1 megapixel) digital photos were then taken at both low and high IOP before and after crosslinking. The vertical and horizontal distances between the outer extent of the ink marks and the outer margins of the optic nerve were measured in Photoshop (Adobe Systems, Inc., San Jose, Calif.), and the centripetal displacement of the fiducial marks (Δ1) was divided by the initial distance between the marks (10) to yield dimensionless indicators of circumferential strain (ζ=Δ1/10) in the peripapillary sclera and ON/LC, respectively. Second, measurements were acquired at each eye's pre-inflation pressure (between 2 to 4 mmHg) and at 80 mmHg to ensure that measurable changes in SWV and ON/LC geometry would be generated in at least one experimental group. As in group 2, the peripapillary sclera was selectively exposed to GTA and post-crosslinking measurements were repeated at low and high IOP. Same-eye statistical comparisons of wave velocity and strain were performed with paired student's t-tests.

Test [3] concerns optic nerve/lamina cribrosa complex. Kind of test: Surface wave velocity (stiffness) across the optic nerve/lamina cribrosa complex of whole globes, Sonic Eye elastometer. As to conditions: for Mean ON/LCC Stiffness, After Glutaraldehyde Crosslinking: Example 2, GTA annular sponge on PS only ~30 min. The method, then: as §1, §2, §3, §4
Eighteen porcine eyes were obtained from a local abattoir (Heffelfingers Meats, Inc., Jeromesville, Ohio) and were used within 24 hours postmortem. The optic nerves were dissected under microscopic visualization to expose the ON/LC (FIG. 1). […]
as §5

Structures are written as SMILES. Several values for one entry are separate records, joined by “and”; a condition that tells them apart may be missing. Equal values may be shown once.

Turning to `O=CCCCC=O` [GTA, glutaraldehyde], the figures for the “Mean PPS Stiffness, After Glutaraldehyde Crosslinking” value in the test on peripapillary sclera [1] (mean IOP 3 mmHg) and in the test on peripapillary sclera [1] (mean IOP 80 mmHg) were 83.6 m/s and 97.9 m/s, respectively. The “Stiffness of Peripapillary Sclera, Post-crosslinking Mean ± SD” value in the test on peripapillary sclera [1] (Example 3 Group 2, High IOP 30 mmHg) worked out at 197.0±35.6 m/s; in the test with peripapillary sclera [1] (Example 3 Group 2, Low IOP 10 mmHg), 148.4±43.0 m/s; in the test with peripapillary sclera [1] (Example 3 Group 3, High IOP 80 mmHg), 190.2±45.8 m/s; in the test on peripapillary sclera [1] (Example 3 Group 3, Low IOP = pre-inflation 2-4 mmHg), 149.9±35.7 m/s. The “Average Circumferential Strain of PS with IOP elevation, Post-Crosslinking Mean ± SD” value in the test on peripapillary sclera [2] was 0.38% and 0.4 ± 1.3%. The “Horizontal Circumferential Strain of PS with IOP elevation, Post-Crosslinking Mean ± SD” value with peripapillary sclera [2] is listed as 0.0 ± 0.0%. Besides, the “Vertical Circumferential Strain of PS with IOP elevation, Post-Crosslinking Mean ± SD” value with peripapillary sclera [2] is 0.7 ± 1.9%. Besides, the “Mean ON/LCC Stiffness, After Glutaraldehyde Crosslinking” value is 29.5 m/s in test [3] (mean IOP 3 mmHg) and 29.3 m/s in test [3] (mean IOP 80 mmHg). In addition, the “Stiffness of Optic Nerve/Lamina Cribrosa Complex, Post-crosslinking Mean ± SD” value in test [3] (Example 3 Group 3, 4% GTA on PS only 30 min, Low IOP = pre-inflation 2-4 mmHg) was 29.5±2.9 m/s.
